Columns and labels:
Format in all cases: in vivo
rat urine = experiment: Biochemical profiling (LC-MS) of rat urine after a single dose of acetaminophen; design: key to Pipecolate significantly changed / Ribose significantly changed / Tyrosine significantly changed: (x = significantly changed)
rat serum = experiment: Biochemical profiling (LC-MS) of rat serum after a single dose of acetaminophen; design: key to Pipecolate significantly changed / Citrulline significantly changed: (x = significantly changed)
human urine = experiment: Biochemical profiling of human urine after single oral dose of APAP, correlated with rat; design: key: X: Biochemicals significantly changed by APAP in both rat and human biological samples; conditions: humans single oral dose of 4 g APAP
Experimental: (§1) Six healthy human volunteers received a standardized soy shake diet for 72 hours. Each volunteer received a single oral dose of 4 g APAP (˜50 mg/kg). Serum and urine were sampled at 0, 6, 18, 24, 48, 72 and 96 hours (urine collected between these times). BCP analysis was carried out as described in Example 1.

human serum = experiment: Biochemical profiling of human serum after single oral dose of APAP, correlated with rat; design: key: X: Biochemicals significantly changed by APAP in both rat and human biological samples; conditions: humans single oral dose of 4 g APAP
Experimental: as §1

CC(=O)Nc1ccc(O)cc1 [acetaminophen]
significant variation from control: responses of aspartic acid, Peak12, glutamine, Peak20, succinic acid and Peak26 versus control (baseline) (rat urine; study of Example 1) | responses of aspartic acid, Peak12, glutamine, Peak20, succinic acid and Peak26 versus control (baseline) (rat serum; study of Example 1)
did not vary significantly from control: response for Peak13 in urine versus control (rat urine; study of Example 1)
X: 2-Oxoglutarate significantly changed by APAP in both rat and human (human urine) | 5-Hyroxytryptophan significantly changed by APAP in both rat and human (human urine) | Cytosine significantly changed by APAP in both rat and human (human urine) | Glutamate significantly changed by APAP in both rat and human (human urine) | Lysine significantly changed by APAP in both rat and human (human urine) | Serine significantly changed by APAP in both rat and human (human urine) | Citrulline significantly changed by APAP in both rat and human (human serum) | Creatinine significantly changed by APAP in both rat and human (human serum) | Glutamate significantly changed by APAP in both rat and human (human serum) | Glutamine significantly changed by APAP in both rat and human (human serum) | Guanosine significantly changed by APAP in both rat and human (human serum) | Homoserine significantly changed by APAP in both rat and human (human serum) | Hypoxanthine significantly changed by APAP in both rat and human (human serum) | Ornithine significantly changed by APAP in both rat and human (human serum) | Phenylalanine significantly changed by APAP in both rat and human (human serum) | Pipecolate significantly changed by APAP in both rat and human (human serum)
not observed: Peak13 presence in serum (rat serum; study of Example 1)
x: Pipecolate significantly changed (rat urine) | Ribose significantly changed (rat urine) | Tyrosine significantly changed (rat urine) | Citrulline significantly changed (rat serum) | Pipecolate significantly changed (rat serum)

Reference: patent publication US20080213768A1, “Identification and use of biomarkers for non-invasive and early detection of liver injury” (priority 2006, published 2008)
